Measurements reported in ChEMBL document CHEMBL4219219, “The synthesis and antistaphylococcal activity of N-sulfonaminoethyloxime derivatives of dehydroabietic acid” (Bioorg Med Chem Lett, 2018).
In brackets after ≈: the same amount, converted by molar mass. Activity calls are given as the source filed them. No cut-off for these calls is given here.

Columns and labels:
[1] = test system: Staphylococcus aureus; test: Antistaphylococcal activity against Staphylococcus aureus Newman after 18 hrs by two-fold serial dilution method; format: functional
[2] = test system: Staphylococcus aureus; test: Antistaphylococcal activity against aminoglycosides/tetracycline-resistant Staphylococcus aureus NRS-1 after 18 hrs by two-fold serial dilution method; format: functional; conditions: NRS-1, 18 h
[3] = test system: Escherichia coli; test: Antibacterial activity against Escherichia coli AB1157 at 50 ug/ml after 18 hrs by two-fold serial dilution method; format: functional, organism-based
[4] = test system: Staphylococcus aureus; test: Antistaphylococcal activity against linezolid-resistant Staphylococcus aureus NRS-271 containing phage type E-MRSA 15 after 18 hrs by two-fold serial dilution method; format: functional; conditions: NRS-271, 18 h
[5] = test system: Staphylococcus aureus; test: Antistaphylococcal activity against gentamicin-resistant Staphylococcus aureus NRS-108 after 18 hrs by two-fold serial dilution method; format: functional; conditions: NRS-108, 18 h
[6] = test system: Staphylococcus aureus; test: Antistaphylococcal activity against oxacillin/tetracycline-resistant Staphylococcus aureus NRS-100 after 18 hrs by two-fold serial dilution method; format: functional; conditions: NRS-100, 18 h
[7] = test system: Staphylococcus aureus; test: Antistaphylococcal activity against erythromycin-resistant Staphylococcus aureus NRS-70 after 18 hrs by two-fold serial dilution method; format: functional; conditions: NRS-70, 18 h

| Compound | MIC [1] [µg/mL] | MIC [2] [µg/mL] | Activity [3] | MIC [4] [µg/mL] | MIC [5] [µg/mL] | MIC [6] [µg/mL] | MIC [7] [µg/mL] |
| --- | --- | --- | --- | --- | --- | --- | --- |
| Cc1ccc(C)c(S(=O)(=O)NCCO/N=C2\C[C@H]3[C@](C)(C(=O)O)CCC[C@]3(C)c3cc(Br)c(C(C)C)cc32)c1 | 1.56 to 3.13 (≈ 2.52 to 5.05 µM) | 3.13 to 6.25 (≈ 5.05 to 10.1 µM) | inactive | 3.13 to 6.25 (≈ 5.05 to 10.1 µM) | 1.56 to 3.13 (≈ 2.52 to 5.05 µM) | 1.56 to 3.13 (≈ 2.52 to 5.05 µM) | 0.78 to 1.56 (≈ 1.26 to 2.52 µM) |
| CC(C)c1cc2c(cc1Br)[C@@]1(C)CCC[C@@](C)(C(=O)O)[C@@H]1C/C2=N\OCCNS(=O)(=O)c1c(F)cccc1F | > 50 |  | inactive |  |  |  |  |
| CC(C)c1cc2c(cc1Br)[C@@]1(C)CCC[C@@](C)(C(=O)O)[C@@H]1C/C2=N\OCCNS(=O)(=O)c1ccccc1Br | 1.56 to 3.13 (≈ 2.33 to 4.67 µM) | 1.56 to 3.13 (≈ 2.33 to 4.67 µM) | inactive | 1.56 to 3.13 (≈ 2.33 to 4.67 µM) | 1.56 to 3.13 (≈ 2.33 to 4.67 µM) | 1.56 to 3.13 (≈ 2.33 to 4.67 µM) | 1.56 to 3.13 (≈ 2.33 to 4.67 µM) |
| CC(C)c1cc2c(cc1Br)[C@@]1(C)CCC[C@@](C)(C(=O)O)[C@@H]1C/C2=N\OCCNS(=O)(=O)c1cccc(C(F)(F)F)c1 | 0.39 to 0.78 (≈ 0.591 to 1.18 µM) | 1.56 to 3.13 (≈ 2.37 to 4.75 µM) | inactive | 1.56 to 3.13 (≈ 2.37 to 4.75 µM) | 0.78 to 1.56 (≈ 1.18 to 2.37 µM) | 1.56 to 3.13 (≈ 2.37 to 4.75 µM) | 0.78 to 1.56 (≈ 1.18 to 2.37 µM) |
| COc1ccc(S(=O)(=O)NCCO/N=C2\C[C@H]3[C@](C)(C(=O)O)CCC[C@]3(C)c3cc(Br)c(C(C)C)cc32)cc1 | 3.13 to 6.25 (≈ 5.04 to 10.1 µM) |  | inactive |  |  |  |  |
| CC(C)c1cc2c(cc1Br)[C@@]1(C)CCC[C@@](C)(C(=O)O)[C@@H]1C/C2=N\OCCNS(=O)(=O)c1cccc2cccnc12 | 1.56 to 3.13 (≈ 2.43 to 4.87 µM) | 1.56 to 3.13 (≈ 2.43 to 4.87 µM) | inactive | 3.13 to 6.25 (≈ 4.87 to 9.73 µM) | 3.13 to 6.25 (≈ 4.87 to 9.73 µM) | 3.13 to 6.25 (≈ 4.87 to 9.73 µM) | 1.56 to 3.13 (≈ 2.43 to 4.87 µM) |
| CC(C)c1cc2c(cc1Br)[C@@]1(C)CCC[C@@](C)(C(=O)O)[C@@H]1C/C2=N\OCCNS(=O)(=O)c1cccc(Br)c1 | 0.78 to 1.56 (≈ 1.16 to 2.33 µM) | 1.56 to 3.13 (≈ 2.33 to 4.67 µM) | inactive | 1.56 to 3.13 (≈ 2.33 to 4.67 µM) | 0.78 to 1.56 (≈ 1.16 to 2.33 µM) | 1.56 to 3.13 (≈ 2.33 to 4.67 µM) | 0.78 to 1.56 (≈ 1.16 to 2.33 µM) |
| CC(C)c1cc2c(cc1Br)[C@@]1(C)CCC[C@@](C)(C(=O)O)[C@@H]1C/C2=N\OCCNS(=O)(=O)c1ccccc1F | 1.56 to 3.13 (≈ 2.56 to 5.13 µM) | 1.56 to 3.13 (≈ 2.56 to 5.13 µM) | inactive | 1.56 to 3.13 (≈ 2.56 to 5.13 µM) | 3.13 to 6.25 (≈ 5.13 to 10.3 µM) | 3.13 to 6.25 (≈ 5.13 to 10.3 µM) | 1.56 to 3.13 (≈ 2.56 to 5.13 µM) |
| CC(C)c1cc2c(cc1Br)[C@@]1(C)CCC[C@@](C)(C(=O)O)[C@@H]1C/C2=N\OCCNS(=O)(=O)c1c(Cl)cccc1Cl | 1.56 to 3.13 (≈ 2.36 to 4.74 µM) | 1.56 to 3.13 (≈ 2.36 to 4.74 µM) | inactive | 1.56 to 3.13 (≈ 2.36 to 4.74 µM) | 1.56 to 3.13 (≈ 2.36 to 4.74 µM) | 1.56 to 3.13 (≈ 2.36 to 4.74 µM) | 0.78 to 1.56 (≈ 1.18 to 2.36 µM) |
| CC(C)c1cc2c(cc1Br)[C@@]1(C)CCC[C@@](C)(C(=O)O)[C@@H]1C/C2=N\OCCNS(=O)(=O)C1CC1 | 6.25 to 12.5 (≈ 11.3 to 22.5 µM) |  | inactive |  |  |  |  |
| CCS(=O)(=O)NCCO/N=C1\C[C@H]2[C@](C)(C(=O)O)CCC[C@]2(C)c2cc(Br)c(C(C)C)cc21 | 12.5 to 25 (≈ 23 to 46 µM) |  | inactive |  |  |  |  |
| CN(C)[C@@H]1C(O)=C(C(N)=O)C(=O)[C@@]2(O)C(O)=C3C(=O)c4c(O)cccc4[C@@](C)(O)[C@H]3C[C@@H]12 [TETRACYCLINE] | < 0.2 | > 25 |  | < 0.2 | < 0.2 | < 0.2 | < 0.2 |
| CC(C)c1cc2c(cc1Br)[C@@]1(C)CCC[C@@](C)(C(=O)O)[C@@H]1C/C2=N\OCCNS(=O)(=O)c1cc(C(F)(F)F)cc(C(F)(F)F)c1 | 0.78 to 1.56 (≈ 1.07 to 2.14 µM) | > 50 | inactive | > 50 | 0.78 to 1.56 (≈ 1.07 to 2.14 µM) | > 50 | 0.78 to 1.56 (≈ 1.07 to 2.14 µM) |
| CC(C)c1cc2c(cc1Br)[C@@]1(C)CCC[C@@](C)(C(=O)O)[C@@H]1C/C2=N\OCCNS(=O)(=O)c1cccs1 |  |  | inactive |  |  |  |  |
| CCCS(=O)(=O)NCCO/N=C1\C[C@H]2[C@](C)(C(=O)O)CCC[C@]2(C)c2cc(Br)c(C(C)C)cc21 | 12.5 to 25 (≈ 22.4 to 44.8 µM) |  | inactive |  |  |  |  |
| CC(C)c1cc2c(cc1Br)[C@@]1(C)CCC[C@@](C)(C(=O)O)[C@@H]1C/C2=N\OCCNS(=O)(=O)c1ccccc1 | 1.56 to 3.13 (≈ 2.64 to 5.29 µM) | 1.56 to 3.13 (≈ 2.64 to 5.29 µM) | inactive | 1.56 to 3.13 (≈ 2.64 to 5.29 µM) | 1.56 to 3.13 (≈ 2.64 to 5.29 µM) | 1.56 to 3.13 (≈ 2.64 to 5.29 µM) | 0.78 to 1.56 (≈ 1.32 to 2.64 µM) |
| CC(C)c1cc2c(cc1Br)[C@@]1(C)CCC[C@@](C)(C(=O)O)[C@@H]1C/C2=N\OCCN | > 50 |  | inactive |  |  |  |  |
| CC(C)c1cc2c(cc1Br)[C@@]1(C)CCC[C@@](C)(C(=O)O)[C@@H]1C/C2=N\OCCNS(=O)(=O)c1ccc(C(C)(C)C)cc1 | 3.13 to 6.25 (≈ 4.83 to 9.65 µM) |  | inactive |  |  |  |  |
